Source: patent publication US20240294499A1, “TARGETED PROTEIN DEGRADATION USING BIFUNCTIONAL COMPOUNDS THAT BIND UBIQUITIN LIGASE AND TARGET MCL-1 PROTEIN” (Captor Therapeutics S.A., priority 2021, published 2024)

Columns and labels:
MV-4-11 cells = test: Cell viability assay (CellTiter-Glo), MV-4-11; format: cell-based; details: 1% FBS; for IC50: Homo sapiens, MV4-11, 24 hours incubation, read-out: Average pIC50 by molecule MV-4-11 (converted)
Method in brief: (§1)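 OPM-2, MV-4-11 and ARH-77 cells were grown in medium with 1% FBS and treated with compound in 1/3 dilutions from 30 uM (9–12 points, 0.5% DMSO). Viability was read by CellTiter-Glo luminescence after 24 hours and normalized to DMSO control.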

[1] = target: T1, [MCL-1]-[compound of formula (I)]-[CRBN/DDB1] complex (Homo sapiens, UniProt Q07820+Q96SW2); test: HTRF ternary complex assay; format: binding; details: ternary complex formation; for EC50: read-out: HTRF ternary complex Average pEC50 by molecule (converted)
Experimental: The effect of the bifunctional compounds of the invention on the formation of a ternary complex composed of [MCL-1]-[compound of formula (I)]-[CRBN/DDB1] was investigated.
Mix of protein solution were prepared: • 48 nM hMcl-1 and 105.6 nM CRBN was prepared in PPI Europium detection buffer with 2 mM DTT. • Acceptor and donor stock solutions were diluted 100 times in PPI Europium detection buffer. Equal volumes of both reagents were mixed. Finally giving 3 nM of Streptavidin-Eu cryptate […] and 6.67 nM of Anti-6× his-d2 […].
5 μl of protein mix was dispensed to all wells. The tested compounds in dose-response were dispensed onto a white 384-well low volume plate (Greiner, 784075). DMSO was backfilled to all wells, resulting in a final DMSO content of 0.5%. Wells containing only DMSO served as background. Next, 5 μl of solution with donor and acceptor was added to the wells.
The plate was sealed with transparent film and shaken using a VibroTurbulator for 60 see at level 3. The plate was then spun down shortly (10 s, 1000 rcf) and incubated at 25° C. for 180 min.
The read-out was performed with plate reader (Pherastar, BMG Labtech) in time resolved fluorescence mode. Filterset: TR 337 665 620.
The results were analyzed as follows: • 1) an average of fluorescence for background signal was calculated and used as a negative control; • 2) raw fluorescence values for tested compounds were normalized against negative controls; • 3) bell shape curve was fitted to a gaussian distribution using a non-linear least squares Gauss-Newton algorithm; • 4) EC50 and pEC50 values were determined.

[2] = target: T1, [MCL-1]-[compound of formula (I)]-[CRBN/DDB1] complex; test: AlphaLISA dose response ternary complex formation assay; format: binding; details: for EC50: read-out: AlphaLISA dose response Average pEC50 by molecule (converted)
Method in brief: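 EC50 comes from dose–response of AlphaLISA luminescence (excitation 680, emission 615 nm), normalised between DMSO background and an internal positive control, with concentrations past the hook point dropped. Ternary complex formed by mixing bead-bound biotin-hMCL-1 and His-CRBN/DDB1 (protein solutions 40 and 200 nM) with compound in 2% DMSO, 30 min, 25 °C.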

ARH-77 cells = test: Cell viability assay (CellTiter-Glo), ARH-77; format: cell-based; details: 1% FBS; for IC50: Homo sapiens, ARH-77, 24 hours incubation, read-out: Average pIC50 by molecule ARH-77 (converted)
Method in brief: as §1

T1 sequence (Q07820 whole entry): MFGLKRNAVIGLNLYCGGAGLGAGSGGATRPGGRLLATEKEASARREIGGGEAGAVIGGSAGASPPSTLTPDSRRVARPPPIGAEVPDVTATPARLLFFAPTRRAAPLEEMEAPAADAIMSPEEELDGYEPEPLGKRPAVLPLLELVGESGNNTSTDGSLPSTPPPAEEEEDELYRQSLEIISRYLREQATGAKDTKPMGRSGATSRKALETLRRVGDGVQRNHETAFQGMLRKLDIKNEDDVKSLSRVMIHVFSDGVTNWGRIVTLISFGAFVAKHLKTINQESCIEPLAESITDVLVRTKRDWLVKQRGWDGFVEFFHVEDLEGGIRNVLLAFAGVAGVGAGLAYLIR
T1 sequence (Q96SW2 whole entry): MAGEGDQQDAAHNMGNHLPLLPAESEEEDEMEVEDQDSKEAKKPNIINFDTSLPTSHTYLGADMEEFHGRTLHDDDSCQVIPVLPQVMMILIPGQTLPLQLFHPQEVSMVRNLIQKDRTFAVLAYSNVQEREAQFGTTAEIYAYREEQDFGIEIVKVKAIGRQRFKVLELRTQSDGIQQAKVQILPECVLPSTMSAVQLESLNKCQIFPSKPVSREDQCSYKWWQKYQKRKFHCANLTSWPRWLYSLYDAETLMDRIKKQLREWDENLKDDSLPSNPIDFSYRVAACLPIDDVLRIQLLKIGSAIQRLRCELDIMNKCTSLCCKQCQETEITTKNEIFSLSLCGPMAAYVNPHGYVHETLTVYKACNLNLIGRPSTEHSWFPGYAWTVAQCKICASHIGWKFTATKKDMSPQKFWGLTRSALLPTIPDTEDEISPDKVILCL
T1 sequence (Q16531 whole entry partner): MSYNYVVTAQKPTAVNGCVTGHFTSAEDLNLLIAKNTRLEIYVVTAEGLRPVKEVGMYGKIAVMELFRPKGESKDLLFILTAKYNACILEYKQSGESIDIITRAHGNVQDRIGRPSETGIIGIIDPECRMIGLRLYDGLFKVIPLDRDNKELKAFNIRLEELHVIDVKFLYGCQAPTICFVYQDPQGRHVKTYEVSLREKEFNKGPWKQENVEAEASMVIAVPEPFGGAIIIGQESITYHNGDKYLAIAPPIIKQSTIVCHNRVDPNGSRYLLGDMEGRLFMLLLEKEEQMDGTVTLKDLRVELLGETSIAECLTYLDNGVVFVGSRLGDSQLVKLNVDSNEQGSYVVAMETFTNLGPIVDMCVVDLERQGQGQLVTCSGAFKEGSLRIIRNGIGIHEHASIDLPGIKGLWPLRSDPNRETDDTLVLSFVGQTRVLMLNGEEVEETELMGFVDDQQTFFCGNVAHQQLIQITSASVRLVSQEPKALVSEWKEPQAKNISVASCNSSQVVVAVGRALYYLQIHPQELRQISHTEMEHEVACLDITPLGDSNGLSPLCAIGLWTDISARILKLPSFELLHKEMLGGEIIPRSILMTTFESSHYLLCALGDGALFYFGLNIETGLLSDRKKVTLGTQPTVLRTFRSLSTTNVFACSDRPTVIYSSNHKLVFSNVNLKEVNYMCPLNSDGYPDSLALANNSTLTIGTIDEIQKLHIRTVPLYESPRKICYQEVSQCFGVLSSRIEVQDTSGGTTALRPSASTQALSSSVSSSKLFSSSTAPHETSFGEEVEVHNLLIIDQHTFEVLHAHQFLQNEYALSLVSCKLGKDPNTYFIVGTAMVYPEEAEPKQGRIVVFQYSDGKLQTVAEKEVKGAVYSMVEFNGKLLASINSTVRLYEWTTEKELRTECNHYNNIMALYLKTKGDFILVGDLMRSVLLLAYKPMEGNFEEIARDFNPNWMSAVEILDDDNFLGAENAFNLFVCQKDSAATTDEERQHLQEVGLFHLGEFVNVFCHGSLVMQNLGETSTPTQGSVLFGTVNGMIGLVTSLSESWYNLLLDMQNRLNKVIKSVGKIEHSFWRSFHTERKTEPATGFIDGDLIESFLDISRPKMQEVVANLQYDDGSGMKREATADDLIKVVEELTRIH

IC50 (MV-4-11 cells) | EC50 [1] | EC50 [2] | Average pIC50 by molecule MV-4-11 (MV-4-11 cells; 24 hours incubation) | HTRF ternary complex Average pEC50 by molecule [1] | AlphaLISA dose response Average pEC50 by molecule [2] | Structure (SMILES) | IC50 (ARH-77 cells) | Average pIC50 by molecule ARH-77 (ARH-77 cells; 24 hours incubation)
≤ 100 nM | < 10 nM | < 100 nM |  |  |  | Cc1nn(C)c(C)c1-c1c(Cl)ccc2c(CCCOc3cccc4cc(F)ccc34)c(C(=O)O)n(CCCNC(=O)Cn3c(C)nc4c(C(=O)NC5CCC(=O)NC5=O)cccc43)c12 (stereo not drawn) [Compound 281, 6-Chloro-1-[3-(2-{4-[(2,6-dioxopiperidin-3-yl)carbamoyl]-2-methyl-1H-1,3-benzodiazol-1-yl}acetamido)propyl]-3-{3-[(6-fluoronaphthalen-1-yl)oxy]propyl}-7-(1,3,5-trimethyl-1H-pyrazol-4-yl)-1H-indole-2-carboxylic acid] | > 10000 nM | 
≤ 100 nM | < 10 nM | < 100 nM |  |  |  | Cc1nn(C)c(C)c1-c1c(Cl)ccc2c(CCCOc3cccc4cc(F)ccc34)c(C(=O)O)n(CCN3CCN(C(=O)Cn4c(C)nc5c(C(=O)NC6CCC(=O)NC6=O)ccc(C)c54)CC3)c12 (stereo not drawn) [Compound 270, 6-Chloro-1-{2-[4-(2-{4-[(2,6-dioxopiperidin-3-yl)carbamoyl]-2,7-dimethyl-1H-1,3-benzodiazol-1-yl}acetyl)piperazin-1-yl]ethyl}-3-{3-[(6-fluoronaphthalen-1-yl)oxy]propyl}-7-(1,3,5-trimethyl-1H-pyrazol-4-yl)-1H-indole-2-carboxylic acid] | > 10000 nM | 
≤ 100 nM | < 10 nM | < 10 nM |  |  |  | Cc1nn(C)c(C)c1-c1c(Cl)ccc2c(CCCOc3cccc4cc(F)ccc34)c(C(=O)O)n(CCCOCCn3c(C)nc4c(C(=O)NC5CCC(=O)NC5=O)cccc43)c12 (stereo not drawn) [Compound 280, 6-Chloro-1-[3-(2-{4-[(2,6-dioxopiperidin-3-yl)carbamoyl]-2-methyl-1H-1,3-benzodiazol-1-yl}ethoxy)propyl]-3-{3-[(6-fluoronaphthalen-1-yl)oxy]propyl}-7-(1,3,5-trimethyl-1H-pyrazol-4-yl)-1H-indole-2-carboxylic acid] | > 3160 nM | 
≤ 100 nM | < 100 nM | < 100 nM |  |  |  | Cc1nn(C)c(C)c1-c1c(Cl)ccc2c(CCCOc3cccc4cc(F)ccc34)c(C(=O)O)n(CCCNC(=O)COc3cccc4c3CN(C3CCC(=O)NC3=O)C4=O)c12 (stereo not drawn) [Compound 330, 6-Chloro-1-[3-(2-{[2-(2,6-dioxopiperidin-3-yl)-1-oxo-2,3-dihydro-1H-isoindol-4-yl]oxy}acetamido)propyl]-3-{3-[(6-fluoronaphthalen-1-yl)oxy]propyl}-7-(1,3,5-trimethyl-1H-pyrazol-4-yl)-1H-indole-2-carboxylic acid] | > 10000 nM | 

Second part, the molecule before the results:

Structure (SMILES) | IC50 (MV-4-11 cells) | EC50 [1] | EC50 [2] | Average pIC50 by molecule MV-4-11 (MV-4-11 cells; 24 hours incubation) | HTRF ternary complex Average pEC50 by molecule [1] | AlphaLISA dose response Average pEC50 by molecule [2] | IC50 (ARH-77 cells) | Average pIC50 by molecule ARH-77 (ARH-77 cells; 24 hours incubation)
Cc1nn(C)c(C)c1-c1c(Cl)ccc2c(CCCOc3cccc4cc(F)ccc34)c(C(=O)O)n(CCN3CCN(CCOc4cccc5c4C(=O)N(C4CCC(=O)NC4=O)C5=O)CC3)c12 (stereo not drawn) [Compound 321, 6-Chloro-1-(2-(4-(2-((2-(2,6-dioxopiperidin-3-yl)-1,3-dioxoisoindolin-4-yl)oxy)ethyl)piperazin-1-yl)ethyl)-3-(3-((6-fluoronaphthalen-1-yl)oxy)propyl)-7-(1,3,5-trimethyl-1H-pyrazol-4-yl)-1H-indole-2-carboxylic acid] | ≤ 316 nM | < 100 nM | < 10 nM |  |  |  | > 10000 nM | 
Cc1nn(C)c(C)c1-c1c(Cl)ccc2c(CCCOc3cccc4cc(F)ccc34)c(C(=O)O)n(CCN3CCC4CN(C(=O)COc5cccc6c5CN(C5CCC(=O)NC5=O)C6=O)CC43)c12 (stereo not drawn) [Compound 301, 6-Chloro-1-{2-[5-(2-{[2-(2,6-dioxopiperidin-3-yl)-1-oxo-2,3-dihydro-1H-isoindol-4-yl]oxy}acetyl)-octahydropyrrolo[2,3-c]pyrrol-1-yl]ethyl}-3-{3-[(6-fluoronaphthalen-1-yl)oxy]propyl}-7-(1,3,5-trimethyl-1H-pyrazol-4-yl)-1H-indole-2-carboxylic acid] | ≤ 100 nM | < 10 nM | < 10 nM |  |  |  | > 10000 nM | 
Cc1nn(C)c(C)c1-c1c(Cl)ccc2c(CCCOc3cccc4cc(F)ccc34)c(C(=O)O)n(CCN3CCC(Nc4cccc5c4C(=O)N(C4CCC(=O)NC4=O)C5=O)CC3)c12 (stereo not drawn) [Compound 308] | ≤ 316 nM | < 100 nM | < 100 nM |  |  |  | > 3160 nM | 
Cc1nn(C)c(C)c1-c1c(Cl)ccc2c(CCCOc3cccc4cc(F)ccc34)c(C(=O)O)n(CCCCCN(C)C(=O)COc3cccc4c3CN(C3CCC(=O)NC3=O)C4=O)c12 (stereo not drawn) [Compound 328, 6-Chloro-1-(5-(2-((2-(2,6-dioxopiperidin-3-yl)-1-oxoisoindolin-4-yl)oxy)-N-methylacetamido)pentyl)-3-(3-((6-fluoronaphthalen-1-yl)oxy)propyl)-7-(1,3,5-trimethyl-1H-pyrazol-4-yl)-1H-indole-2-carboxylic acid] | ≤ 31.6 nM | < 100 nM | < 100 nM |  |  |  | > 3160 nM | 
Cc1nn(C)c(C)c1-c1c(Cl)ccc2c(CCCOc3cccc4cc(F)ccc34)c(C(=O)O)n(CCN3CCN(C(=O)COc4cccc5c4CN(C4CCC(=O)NC4=O)C5=O)CC3)c12 (atropisomer, axis not shown; (Sa)) [Compound 295, (Sa)-6-Chloro-1-(2-(4-(2-((2-(2,6-dioxopiperidin-3-yl)-1-oxoisoindolin-4-yl)oxy)acetyl)piperazin-1-yl)ethyl)-3-(3-((6-fluoronaphthalen-1-yl)oxy)propyl)-7-(1,3,5-trimethyl-1H-pyrazol-4-yl)-1H-indole-2-carboxylic acid] |  |  |  | ≥7.5 | >7 | >7 |  | <5.0
Cc1nn(C)c(C)c1-c1c(Cl)ccc2c(CCCOc3cccc4ccccc34)c(C(=O)O)n(CCN3CCC(NC(=O)COc4cccc5c4CN(C4CCC(=O)NC4=O)C5=O)CC3)c12 (stereo not drawn) [Compound 221, 6-chloro-1-{2-[4-(2-{[2-(2,6-dioxopiperidin-3-yl)-1-oxo-2,3-dihydro-1H-isoindol-4-yl]oxy}acetamido)piperidin-1-yl]ethyl}-3-[3-(naphthalen-1-yloxy)propyl]-7-(1,3,5-trimethyl-1H-pyrazol-4-yl)-1H-indole-2-carboxylic acid] | ≤ 10000 nM | < 100 nM | < 100 nM |  |  |  | > 31600 nM | 
Cc1nn(C)c(C)c1-c1c(Cl)ccc2c(CCCOc3cccc4cc(F)ccc34)c(C(=O)O)n(CCN(C)CCN(C)C(=O)COc3cccc4c3CN(C3CCC(=O)NC3=O)C4=O)c12 (stereo not drawn) [Compound 327, 6-Chloro-1-(2-((2-(2-((2-(2,6-dioxopiperidin-3-yl)-1-oxoisoindolin-4-yl)oxy)-N-methylacetamido)ethyl)(methyl)amino)ethyl)-3-(3-((6-fluoronaphthalen-1-yl)oxy)propyl)-7-(1,3,5-trimethyl-1H-pyrazol-4-yl)-1H-indole-2-carboxylic acid] | ≤ 100 nM | < 10 nM | < 100 nM |  |  |  | > 10000 nM | 
Cc1nn(C)c(C)c1-c1c(Cl)ccc2c(CCCOc3cccc4cc(F)ccc34)c(C(=O)O)n(CCCCN(C)C(=O)COc3cccc4c3CN(C3CCC(=O)NC3=O)C4=O)c12 (stereo not drawn) [Compound 326, 6-chloro-1-[4-(2-{[2-(2,6-dioxopiperidin-3-yl)-1-oxo-2,3-dihydro-1H-isoindol-4-yl]oxy}-N-methylacetamido)butyl]-3-{3-[(6-fluoronaphthalen-1-yl)oxy]propyl}-7-(1,3,5-trimethyl-1H-pyrazol-4-yl)-1H-indole-2-carboxylic acid] | ≤ 316 nM | < 10 nM | < 100 nM |  |  |  | > 10000 nM | 
